ChEMBL document CHEMBL2331077, “Sacchathridine A, a prostaglandin release inhibitor from Saccharothrix sp” (J Nat Prod, 2013)
pIC50: −log10 of the molar value. Activity calls are given as the source filed them. No cut-off for these calls is given here.

Legend:
SW982 [1] = experiment: Inhibition of PGE2 release from bradykinin-stimulated human SW982 cells by fluorescence assay; assay type: functional, cell-based
SW982 [2] = experiment: Growth inhibition of human SW982 cells up to 30 uM after 48 hrs by cell counting; assay type: functional, cell-based

| pIC50 (SW982 [1]) | Compound | inhibition (SW982 [1]) | growth inhibition (GI) (SW982 [2]) |
| --- | --- | --- | --- |
| 6.00 | COC1=C(C)C(=O)c2ccc(O[C@@H]3O[C@@H](C)[C@H](O)[C@@H](O)[C@H]3O)c(NNC(C)=O)c2C1=O [SACCHATHRIDINE A] | Dose-dependent effect | inactive |
| 7.48 | CS(=O)(=O)c1ccc(-n2nc(C(F)(F)F)cc2-c2ccc(F)cc2)cc1 [SC-58125] | – | – |
